Values quoted from earlier work as cited in patent US20080254117A1, “PROCESS FOR PREPARING PRAMIPEXOLE DIHYDROCHLORIDE TABLETS” (priority 2007, published 2008).
Counter-ions that a name gives are not always drawn.

Assays:
[1] = not given; remark: listed apart in the source

Row | SMILES | light sensitivity in solution (in solution) | stability in the solid state (solid state) | solubility in buffer media ([1]; between pH 2 and pH 7.4) | Water solubility ([1]; water)
1 | CCCN[C@H]1CCc2nc(N)sc2C1 [Pramipexole, (S)-2-amino-4,5,6,7-tetrahydro-6-(propylamino)benzothiazole] | light sensitive | very stable in the solid state | – | –
2 | CCCN[C@H]1CCc2nc(N)sc2C1 [Pramipexole dihydrochloride monohydrate, pramipexole dihydrochloride monohydrate] | – | – | above 10 mg/mL | more than 20 mg/mL
